PubChem BioAssay AID1259407 (Chemical Carcinogenesis Research Information System (CCRIS), 2018)
Calls of active or inactive are those of the source. How the calls were made is not given here.

System: CCRIS mutagenicity, Ames/micronucleus/aberration tests
Experiment: CCRIS mutagenicity studies
[1] = Test System: AMES SALMONELLA TYPHIMURIUM, Strain/Indicator: TA102, Metabolic Activation: NONE, Method: STANDARD PLATE
[2] = Test System: AMES SALMONELLA TYPHIMURIUM, Strain/Indicator: TA100, Metabolic Activation: NONE, Method: STANDARD PLATE
[3] = Test System: AMES SALMONELLA TYPHIMURIUM, Strain/Indicator: TA98, Metabolic Activation: NONE, Method: STANDARD PLATE

CCOP(=O)(OCC)OCC
mutagenic call (Test System: AMES SALMONELLA TYPHIMURIUM, Strain/Indicator: TA98, Metabolic Activation: HAMSTER, LIVER, S-9, AROCLOR 1254 (10%), Method: PREINCUBATION): inactive; negative
mutagenic call (Test System: AMES SALMONELLA TYPHIMURIUM, Strain/Indicator: TA98, Metabolic Activation: NONE, Method: PREINCUBATION): inactive; negative
mutagenic call (Test System: AMES SALMONELLA TYPHIMURIUM, Strain/Indicator: TA98, Metabolic Activation: RAT, LIVER, S-9, AROCLOR 1254 (10%), Method: PREINCUBATION): inactive; negative
mutagenic call (Test System: AMES SALMONELLA TYPHIMURIUM, Strain/Indicator: TA100, Metabolic Activation: HAMSTER, LIVER, S-9, AROCLOR 1254 (10%), Method: PREINCUBATION): inactive; negative
mutagenic call (Test System: AMES SALMONELLA TYPHIMURIUM, Strain/Indicator: TA100, Metabolic Activation: NONE, Method: PREINCUBATION): inactive; negative
mutagenic call (Test System: AMES SALMONELLA TYPHIMURIUM, Strain/Indicator: TA100, Metabolic Activation: RAT, LIVER, S-9, AROCLOR 1254 (10%), Method: PREINCUBATION): inactive; negative
mutagenic call [1]: inactive; negative
mutagenic call (Test System: AMES SALMONELLA TYPHIMURIUM, Strain/Indicator: TA1535, Metabolic Activation: HAMSTER, LIVER, S-9, AROCLOR 1254 (10%), Method: PREINCUBATION): inactive; negative
mutagenic call (Test System: AMES SALMONELLA TYPHIMURIUM, Strain/Indicator: TA1535, Metabolic Activation: NONE, Method: PREINCUBATION): inactive; negative
mutagenic call (Test System: AMES SALMONELLA TYPHIMURIUM, Strain/Indicator: TA1535, Metabolic Activation: RAT, LIVER, S-9, AROCLOR 1254 (10%), Method: PREINCUBATION): inactive; negative
mutagenic call (Test System: AMES SALMONELLA TYPHIMURIUM, Strain/Indicator: TA1537, Metabolic Activation: HAMSTER, LIVER, S-9, AROCLOR 1254 (10%), Method: PREINCUBATION): inactive; negative
mutagenic call (Test System: AMES SALMONELLA TYPHIMURIUM, Strain/Indicator: TA1537, Metabolic Activation: NONE, Method: PREINCUBATION): inactive; negative
mutagenic call (Test System: AMES SALMONELLA TYPHIMURIUM, Strain/Indicator: TA1537, Metabolic Activation: RAT, LIVER, S-9, AROCLOR 1254 (10%), Method: PREINCUBATION): inactive; negative
mutagenic call (Test System: AMES SALMONELLA TYPHIMURIUM, Strain/Indicator: TA2638, Metabolic Activation: NONE, Method: STANDARD PLATE): inactive; negative
mutagenic call (Test System: E. COLI, Strain/Indicator: WP2 (PKM101), Metabolic Activation: NONE, Method: STANDARD PLATE): inactive; negative
mutagenic call (Test System: E. COLI, Strain/Indicator: WP2 UVRA (PKM101), Metabolic Activation: NONE, Method: STANDARD PLATE): inactive; negative

CCCC(=O)Nc1snc2ccccc12
mutagenic call [2]: inactive; negative
mutagenic call (Test System: AMES SALMONELLA TYPHIMURIUM, Strain/Indicator: TA100, Metabolic Activation: S-9, Method: STANDARD PLATE): inactive; negative

CCN(CC)C(=O)Nc1ccc(OCC(O)CNC(C)(C)C)c(C(C)=O)c1 (stereo not given)
mutagenic call (Test System: AMES SALMONELLA TYPHIMURIUM, Strain/Indicator: TA97, Metabolic Activation: NONE, Method: STANDARD PLATE): inactive; negative
mutagenic call [3]: inactive; negative
mutagenic call (Test System: AMES SALMONELLA TYPHIMURIUM, Strain/Indicator: TA98, Metabolic Activation: RAT, LIVER, S-9, AROCLOR 1254, Method: STANDARD PLATE): inactive; negative
mutagenic call (Test System: AMES SALMONELLA TYPHIMURIUM, Strain/Indicator: TA98, Metabolic Activation: RAT, S-9, AROCLOR 1254, Method: STANDARD PLATE): inactive; negative
mutagenic call [2]: inactive; negative
mutagenic call (Test System: AMES SALMONELLA TYPHIMURIUM, Strain/Indicator: TA100, Metabolic Activation: RAT, LIVER, S-9, AROCLOR 1254, Method: STANDARD PLATE): inactive; negative
mutagenic call (Test System: AMES SALMONELLA TYPHIMURIUM, Strain/Indicator: TA100, Metabolic Activation: RAT, S-9, AROCLOR 1254, Method: STANDARD PLATE): inactive; negative
mutagenic call [1]: inactive; negative
mutagenic call (Test System: AMES SALMONELLA TYPHIMURIUM, Strain/Indicator: TA1535, Metabolic Activation: NONE, Method: STANDARD PLATE): inactive; negative
mutagenic call (Test System: AMES SALMONELLA TYPHIMURIUM, Strain/Indicator: TA1535, Metabolic Activation: RAT, S-9, AROCLOR 1254, Method: STANDARD PLATE): inactive; negative
mutagenic call (Test System: AMES SALMONELLA TYPHIMURIUM, Strain/Indicator: TA1537, Metabolic Activation: NONE, Method: STANDARD PLATE): inactive; negative
mutagenic call (Test System: AMES SALMONELLA TYPHIMURIUM, Strain/Indicator: TA1537, Metabolic Activation: RAT, S-9, AROCLOR 1254, Method: STANDARD PLATE): inactive; negative
mutagenic call (Test System: AMES SALMONELLA TYPHIMURIUM, Strain/Indicator: TA1538, Metabolic Activation: NONE, Method: STANDARD PLATE): inactive; negative
mutagenic call (Test System: AMES SALMONELLA TYPHIMURIUM, Strain/Indicator: TA1538, Metabolic Activation: RAT, S-9, AROCLOR 1254, Method: STANDARD PLATE): inactive; negative
mutagenic call (Test System: E. COLI, Strain/Indicator: WP2, Metabolic Activation: NONE, Method: STANDARD PLATE): inactive; negative
mutagenic call (Test System: E. COLI, Strain/Indicator: WP2, Metabolic Activation: RAT, S-9, AROCLOR 1254, Method: STANDARD PLATE): inactive; negative
mutagenic call (Test System: E. COLI, Strain/Indicator: WP2 UVRA, Metabolic Activation: NONE, Method: STANDARD PLATE): inactive; negative
mutagenic call (Test System: E. COLI, Strain/Indicator: WP2 UVRA, Metabolic Activation: RAT, S-9, AROCLOR 1254, Method: STANDARD PLATE): inactive; negative

CI
mutagenic call (Test System: AMES SALMONELLA TYPHIMURIUM, Strain/Indicator: TA98, Metabolic Activation: NONE, Method: GAS EXPOSURE): inactive; negative
mutagenic call (Test System: AMES SALMONELLA TYPHIMURIUM, Strain/Indicator: TA98, Metabolic Activation: RAT, LIVER, S-9, PHENOBARBITAL AND BETA--NAPHTHOFLAVONE, Method: GAS EXPOSURE): inactive; negative
mutagenic call (Test System: AMES SALMONELLA TYPHIMURIUM, Strain/Indicator: TA100, Metabolic Activation: NONE, Method: DESICCATOR): active; positive
mutagenic call (Test System: AMES SALMONELLA TYPHIMURIUM, Strain/Indicator: TA100, Metabolic Activation: NONE, Method: GAS EXPOSURE): active; positive
mutagenic call (Test System: AMES SALMONELLA TYPHIMURIUM, Strain/Indicator: TA100, Metabolic Activation: RAT, LIVER, S-9, PHENOBARBITAL AND BETA--NAPHTHOFLAVONE, Method: GAS EXPOSURE): active; positive
mutagenic call (Test System: AMES SALMONELLA TYPHIMURIUM, Strain/Indicator: TA1535, Metabolic Activation: NONE, Method: GAS EXPOSURE): inactive; negative
mutagenic call (Test System: AMES SALMONELLA TYPHIMURIUM, Strain/Indicator: TA1535, Metabolic Activation: RAT, LIVER, S-9, PHENOBARBITAL AND BETA--NAPHTHOFLAVONE, Method: GAS EXPOSURE): inactive; negative
mutagenic call (Test System: AMES SALMONELLA TYPHIMURIUM, Strain/Indicator: TA1535, Metabolic Activation: RAT, LIVER, S-9, Method: SPOT): active; positive
mutagenic call (Test System: AMES SALMONELLA TYPHIMURIUM, Strain/Indicator: TA1537, Metabolic Activation: NONE, Method: GAS EXPOSURE): inactive; negative
mutagenic call (Test System: AMES SALMONELLA TYPHIMURIUM, Strain/Indicator: TA1537, Metabolic Activation: RAT, LIVER, S-9, PHENOBARBITAL AND BETA--NAPHTHOFLAVONE, Method: GAS EXPOSURE): inactive; negative
mutagenic call (Test System: E. COLI, Strain/Indicator: WP2UVRA, Metabolic Activation: NONE, Method: GAS EXPOSURE): inactive; negative
mutagenic call (Test System: E. COLI, Strain/Indicator: WP2UVRA, Metabolic Activation: RAT, LIVER, S-9, PHENOBARBITAL AND BETA--NAPHTHOFLAVONE, Method: GAS EXPOSURE): inactive; negative
mutagenic call (Test System: MOUSE LYMPHOMA, Strain/Indicator: L5178Y (TK+/TK-), Metabolic Activation: NONE, Method: SUSPENSION/PLATE): active; positive
mutagenic call (Test System: MOUSE LYMPHOMA, Strain/Indicator: L5178Y (TK+/TK-), Metabolic Activation: RAT, LIVER, S-9, AROCLOR 1254, Method: SUSPENSION/PLATE): active; positive

Cn1c2ccccc2c2ccccc21
mutagenic call [3]: inactive; negative
mutagenic call (Test System: AMES SALMONELLA TYPHIMURIUM, Strain/Indicator: TA98, Metabolic Activation: RAT LIVER S-9, AROCLOR 1254, Method: STANDARD PLATE): inactive; negative
mutagenic call [2]: inactive; negative
mutagenic call (Test System: AMES SALMONELLA TYPHIMURIUM, Strain/Indicator: TA100, Metabolic Activation: RAT LIVER S-9, AROCLOR 1254, Method: STANDARD PLATE): active; positive
mutagenic call (Test System: UDS PRIMARY RAT HEPATOCYTES, Strain/Indicator: THY-INCORP, Metabolic Activation: NONE, Method: AUTORADIOGRAPHY): inactive; negative
